Results: patent US20180249717A1, “HOUSE DUST MITE ALLERGY PROTEIN REMOVER, AND COMPOSITION THEREOF” (AYJ BIO LAB INC., priority 2015, published 2018)

Key:
[1] = system: Dermatophagoides farina house dust mite proteins; assay: Dot-blot immunoassay for human-specific IgE reactivity (inhibition of allergenicity); assay type: binding; set-up: unit not given here; settings: 500 μg each, allergic patient's serum IgE
Method: (§1) In addition, a dot-blot immunoassay for human-specific IgE reactivity was performed, as described previously [Tsai, L. C., Y. C. Sun, P. L. Chao, M. W. Hung, I. C. Kuo, et al. 2000. Protein sequence analysis and mapping of IgE and IgG epitopes of an allergenic 98 kDa Dermatophagoides farinae paramyosin, Der f 11. Allergy 55: 141147]. House dust mite proteins (10 μg) were applied to a PVDF membrane using a Hybri-Dot Manifold (Life Technologies, Gaithersburg, Md.) according to the manufacturer's instructions. After blocking with 0.1% PBS-T containing 5% skim milk, the membrane was incubated with 1:500 diluted allergic patient's antiserum at 4° C. overnight. After washing with 0.1% PBS-T three times, the membrane was incubated with 1:20000 diluted goat anti-human IgG (H+L)-HRP and IgE-HRP conjugate (Zymed Laboratories, Sanfrancisco, Calif.) for 1 hr at 25±1° C. The essential oils and compounds (500 μg each) were tested with the patient's serum which was diluted 1:250, and then incubated 1:5000 diluted IgE-HRP conjugate antibodies. After additional washing, as stated previously, the blot was incubated with ECL chemiluminescence reagent for 1 min and exposed to X-ray films for 5-20 min at room temperature. The intensity of the IgE-reacting dot was determined using a Bio-Rad Gel Doc XR image analyzer, as stated previously. Tannic acid served as a standard reference and was similarly formulated.
(§2) The reference numerals used in FIG. 2 indicate the following: C: untreated control; T: tannic acid; 1: spearmint essential oil; 2: Summer savory essential oil; 3: Oregano essential oil; 4: Carrot seed essential oil; 5: Catnip essential oil; 6: Mandarin essential oil; 7: Lime essential oil; and 8: Celery essential oil.
(§3) The inhibitory activities of the above-described plant essential oils and compounds against the allergenicity of two species of house dust mite proteins are shown in Tables 9 and 10 below, respectively. […]

[2] = system: Dermatophagoides pteronyssinus house dust mite proteins; assay: as above; assay type: binding; settings: 500 μg each, allergic patient's serum IgE
Method: as §1, §2, §3

[3] = system: group 1 allergens (Der p I and Der f I); settings: 3% tannic acid solution (wt/vol); cited from earlier work
[4] = system: group 2 allergens (Der p II and Der f II); settings: 3% tannic acid solution (wt/vol), compared with group 1; cited from earlier work
[5] = system: house dust mite proteins (two major HDM allergens group 1 and 2); assay: SDS-PAGE denaturing/neutralizing activity against house dust mite proteins; assay type: biochemical; set-up: key: +++: comparable to or higher than the activity of the positive control tannic acid; ++: neutralizing activity somewhat lower than that of the positive control; settings: compounds; incubated with mite proteins 1 hr at 25 C; relative to tannic acid
Source text: Adult mites (both sexes, 6-8 days old) were extracted, as described previously [Nakada, S., K. Ito, C. Urata, Y. Sakamoto, M. Hasegawa, T. Nakagawa & T. Miyamoto. 1985. Allergenecity and immunogenicity of house-dust mite (Dermatophagoides farinae) antigens treated with glutaraldehyde. Ann. Allergy 54: 437441; Tovey, E. R. & B. A. Baldo. 1987. Comparison by electroblotting of IgE-binding components in ectracts of house dust mite bodies and spent mite culture. J. Allergy Clin. Immunol. 79: 93102.]. In brief, whole bodies (80 mg fresh weight/4 mL buffer) were homogenized on ice in 0.01 M phosphate-buffered saline (PBS) (pH 7.4) for 15 min. The homogenate was then stirred at 0° C. for 1 hr, centrifuged for 30 min at 14000 g, and concentrated by ultrafiltration to 1 mg/mL of protein.
The protein content was determined using a Bradford protein assay kit (Pierce, Rockford, Ill.). Bovine serum albumin (Pierce, Rockford, Ill.) was used as the standard. Precision Plus Protein Standards was supplied by Bio-Rad (Hercules, Calif.).
SDS-PAGE was performed according to the modified method of Laemmli [Laemmli, U.K. 1970. Cleavage of structural proteins during the assembly of the head of bacteriophage T4. Nature 227: 680685]. Based on the preliminary test results, mixtures of mite proteins ([…]) and each test material ([…]) in 4.5 μL of dimethyl sulfoxide (DMSO) were incubated for 1 hr at 25±1° C. Negative controls consisted of 4.5 μL of DMSO. Tannic acid or 3% tannic acid solution served as a positive control and was similarly formulated. Samples were mixed with an equal volume of SDS sample buffer (4% SDS, 4% mercaptoethanol, and 100 mM Tris-HCl, pH 8.0), boiled for 10 min, and resolved by electrophoresis on 12% (w/v) polyacrylamide gels by using a Mini-Protean 3 electrophoresis cell (Bio-Rad, Hercules, Calif.). After electrophoresis at 120 V for 80 min, the gels were stained with 0.1% Coomassie brilliant blue R-250 for quantification. The intensity of denaturing activity of each test material toward the two major HDM allergens group 1 and 2 was determined using a Gel Doc XR image analyzer with Quantity One Software (Bio-Rad, Hercules, Calif.) according to the manufacturer's instructions.
In FIG. 1, lane M represents a protein marker; land Ext represents a negative control loaded only with untreated house dust mite protein; lanes 5 and 6 indicate moderate activity; lanes 1, 2, 3 and 4 indicate strong activity; and lane TA represents a positive control treated with tannic acid.
Plant essential oils and compounds, confirmed to have neutralizing activity against house dust mites in the above experiments, are summarized in Tables 7 and 8 below, respectively.

[6] = system: adult American house dust mites (Dermatophagoides farina); assay: Spray bioassay of spray formulations (acaricidal activity); assay type: in vivo; settings: sprayed on cotton fabric, 24 h post-treatment
Method: The acaricidal effect of each of carrot seed essential formulations and spearmint essential oil formulations, dissolved in ethanolpolyoxyethylene+polyoxypropylene (9:1) styrenated phenyl ether, was evaluated using a spray bioassay.
In brief, a spray bioassay was used to evaluate the efficacy of four experimental spray formulations against adult American house dust mites (Dermatophagoides farina) [Lee, J. H., J. R. Kim, Y. R. Koh & Y. J. Ahn. 2013. Contact and fumigant toxicity of Pinus densiflora needle hydrodistillate constituents and related compounds and efficacy of spray formulations containing the oil to Dermatophagoides farinae. Pest Manag. Sci. 69: 696702]. Each test solution was sprayed two times successively at 10 cm upwards onto the 5 cm diameter black cotton-fabric circle. After drying for 5 min, each fabric circle was placed onto the bottom section of a disposable Petri dish (5 cm diameter×1 cm height). Groups of 40-50 adult mites (both sexes, 7-10 days old) were placed separately onto the treated fabric circles, and each dish was sealed with the original tight-fitting lid. 2.5 g/L of the commercial acaricide d-phenothrin or permethnrin (cis:trans, 25:75) spray served as a positive control. […] Mortalities were determined 24 h post-treatment under a dissecting microscope (×20). […]

SMILES | Neutralizing activity [5] | Inhibition of allergenicity, Dermatophagoides farina ([1]; compounds) | Inhibition of allergenicity, Dermatophagoides pteronyssinus ([2]; compounds) | further results
O=C(OC[C@H]1O[C@@H](OC(=O)c2cc(O)c(O)c(OC(=O)c3cc(O)c(O)c(O)c3)c2)[C@H](OC(=O)c2cc(O)c(O)c(OC(=O)c3cc(O)c(O)c(O)c3)c2)[C@@H](OC(=O)c2cc(O)c(O)c(OC(=O)c3cc(O)c(O)c(O)c3)c2)[C@@H]1OC(=O)c1cc(O)c(O)c(OC(=O)c2cc(O)c(O)c(O)c2)c1)c1cc(O)c(O)c(OC(=O)c2cc(O)c(O)c(O)c2)c1 [Tannic acid, reference compound] | – | – | – | Inhibition of allergenicity, Dermatophagoides farina ([1]; essential oils): 87.2; Inhibition of allergenicity, Dermatophagoides pteronyssinus ([2]; essential oils): 81.1; Denaturation of group 1 allergens [3]: denatures; Denaturation of group 2 allergens [4]: somewhat less effective
CC=Cc1ccc(OC)cc1 [Anethole] | ++ | 62.3 | 52.1 | –
CC(C)=CCC/C(C)=C/C=O [Geranial] | +++ | 72.6 | 68.1 | –
CC(C)c1ccccc1 [Cumene] | ++ | 60.9 | 47.8 | –
CC1(C)C(C=C(Cl)Cl)C1C(=O)OCc1cccc(Oc2ccccc2)c1 (stereo not drawn) [Permethrin] | – | – | – | mortality at 2500 µg/mL ([6]; Dermatophagoides, spearmint essential oil sprays, permethrin spray 2.5 g/L as positive control, read-out: Mortality (%, standard error)): 17.3 ± 3.3%
CC(C)=CCC/C(C)=C\CO [Nerol] | ++ | 67.9 | 42.3 | –
C=C(C)[C@@H]1CC[C@@H](C)C[C@H]1O [Isopulegol] | ++ | 76.5 | 57.4 | –
CC1=CCC2C(C1)C2(C)C (stereo not drawn) [Delta-3-carene] | +++ | 77.9 | 78.1 | –
C=C(C)[C@H](CO)CC=C(C)C [Lavandulol] | ++ | 74.4 | 62.7 | –
CC(C)c1ccc(C=O)cc1 [Cuminaldehyde] | +++ | 80.4 | 76.1 | –
C/C=C\c1cc(OC)c(OC)cc1OC [Beta-asarone] | ++ | 64.9 | 68.5 | –
C=C(C)[C@@H]1CC=C(CO)CC1 [Perilla alcohol] | ++ | 68.7 | 56.5 | –
CC12CCC(CC1=O)C2(C)C (stereo not drawn) [Camphor] | ++ | 78.2 | 77.9 | –
CC(C)=CC1C(C(=O)OCc2cccc(Oc3ccccc3)c2)C1(C)C (stereo not drawn) [d-Phenothrin, d-phenothrin] | – | – | – | Mortality (%, standard error) ([6]; carrot seed essential oil sprays, d-phenothrin spray 2.5 g/L as positive control): 8.3 ± 1.7 d %
CC(C)=CCC/C(C)=C\C=O [Neral] | ++ | 77.2 | 56.5 | –
C=C(C)C1CC=C(C=O)CC1 (stereo not drawn) [Perillaldehyde] | +++ | 79.1 | 76.4 | –
C=CC(C)(O)CCC=C(C)CCC=C(C)C (stereo not drawn) [Nerolidol] | ++ | 42.3 | 67.7 | –
C=CCc1cc(OC)c2c(c1)OCO2 [Myristicin] | +++ | 76.3 | 67.0 | –
C=CCN=C=S [Allyl isothiocyanate] | +++ | 82.1 | 73.0 | –
Cc1ccc(C(C)C)c(O)c1 [Thymol] | +++ | 79.4 | 67.9 | –
CC(C)=CCCC(C)CCO (stereo not drawn) [Citronellol] | ++ | 61.2 | 49.2 | –
